pKi: −log10 of the molar value.
Legend:
Histamine H1 receptor = Histamine H1 receptor (Cavia porcellus, UniProt P31389)
Histamine H2 receptor = Histamine H2 receptor (Cavia porcellus, UniProt P47747)
Hrh3 protein = Hrh3 protein (Rattus norvegicus, UniProt Q5PPG3)
Nischarin = Nischarin (Rattus norvegicus, UniProt Q4G017)
Nischarin, sequence (Q4G017 whole entry): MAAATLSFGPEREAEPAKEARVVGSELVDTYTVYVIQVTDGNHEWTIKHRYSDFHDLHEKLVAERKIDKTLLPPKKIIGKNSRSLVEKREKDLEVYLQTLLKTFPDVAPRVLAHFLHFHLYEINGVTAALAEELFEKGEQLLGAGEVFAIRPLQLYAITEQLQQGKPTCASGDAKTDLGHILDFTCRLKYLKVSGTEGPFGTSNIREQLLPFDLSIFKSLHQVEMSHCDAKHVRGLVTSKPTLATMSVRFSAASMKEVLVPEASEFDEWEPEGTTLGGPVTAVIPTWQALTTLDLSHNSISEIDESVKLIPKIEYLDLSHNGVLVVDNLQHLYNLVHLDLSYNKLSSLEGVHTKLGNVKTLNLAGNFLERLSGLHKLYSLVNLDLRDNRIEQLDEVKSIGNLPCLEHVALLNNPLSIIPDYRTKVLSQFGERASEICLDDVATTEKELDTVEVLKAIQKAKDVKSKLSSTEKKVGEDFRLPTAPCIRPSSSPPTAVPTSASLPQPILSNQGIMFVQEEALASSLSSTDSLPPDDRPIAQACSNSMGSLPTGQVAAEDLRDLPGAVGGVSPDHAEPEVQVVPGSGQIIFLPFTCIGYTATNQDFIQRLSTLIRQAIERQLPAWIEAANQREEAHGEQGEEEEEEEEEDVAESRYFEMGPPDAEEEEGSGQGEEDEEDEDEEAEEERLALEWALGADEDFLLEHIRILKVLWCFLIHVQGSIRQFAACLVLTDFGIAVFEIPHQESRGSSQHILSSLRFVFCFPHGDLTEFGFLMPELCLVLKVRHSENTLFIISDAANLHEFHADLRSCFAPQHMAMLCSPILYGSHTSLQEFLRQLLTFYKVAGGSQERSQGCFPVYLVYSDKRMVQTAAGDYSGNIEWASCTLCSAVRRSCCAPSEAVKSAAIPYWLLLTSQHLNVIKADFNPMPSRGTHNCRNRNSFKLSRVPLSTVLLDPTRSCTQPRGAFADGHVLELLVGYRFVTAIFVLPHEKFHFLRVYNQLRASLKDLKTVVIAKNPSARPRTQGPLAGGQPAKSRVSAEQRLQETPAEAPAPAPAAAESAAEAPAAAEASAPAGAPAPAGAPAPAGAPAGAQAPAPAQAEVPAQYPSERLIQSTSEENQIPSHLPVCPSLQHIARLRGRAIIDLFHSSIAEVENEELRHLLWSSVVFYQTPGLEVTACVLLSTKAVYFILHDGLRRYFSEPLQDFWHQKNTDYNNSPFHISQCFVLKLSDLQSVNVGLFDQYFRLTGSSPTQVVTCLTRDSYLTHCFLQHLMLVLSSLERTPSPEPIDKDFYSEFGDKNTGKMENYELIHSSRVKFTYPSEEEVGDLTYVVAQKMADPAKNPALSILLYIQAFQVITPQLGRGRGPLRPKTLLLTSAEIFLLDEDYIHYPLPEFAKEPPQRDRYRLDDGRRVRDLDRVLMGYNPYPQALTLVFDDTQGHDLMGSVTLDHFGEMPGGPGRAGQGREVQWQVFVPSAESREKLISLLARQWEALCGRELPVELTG

Histamine H1 receptor, sequence (P31389 whole entry): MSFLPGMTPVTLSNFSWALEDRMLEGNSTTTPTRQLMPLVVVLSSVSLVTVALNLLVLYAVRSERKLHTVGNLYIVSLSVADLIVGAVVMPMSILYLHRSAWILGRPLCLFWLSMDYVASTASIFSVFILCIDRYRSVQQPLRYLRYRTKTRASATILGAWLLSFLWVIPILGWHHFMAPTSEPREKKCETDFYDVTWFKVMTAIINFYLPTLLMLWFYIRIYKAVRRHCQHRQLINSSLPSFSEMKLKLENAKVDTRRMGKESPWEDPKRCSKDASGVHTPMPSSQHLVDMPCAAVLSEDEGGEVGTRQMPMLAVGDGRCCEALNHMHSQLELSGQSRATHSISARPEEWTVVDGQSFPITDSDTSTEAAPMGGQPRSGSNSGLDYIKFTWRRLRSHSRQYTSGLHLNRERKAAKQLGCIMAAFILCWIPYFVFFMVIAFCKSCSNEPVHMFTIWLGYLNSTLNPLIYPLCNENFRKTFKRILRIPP
Histamine H2 receptor, sequence (P47747 whole entry): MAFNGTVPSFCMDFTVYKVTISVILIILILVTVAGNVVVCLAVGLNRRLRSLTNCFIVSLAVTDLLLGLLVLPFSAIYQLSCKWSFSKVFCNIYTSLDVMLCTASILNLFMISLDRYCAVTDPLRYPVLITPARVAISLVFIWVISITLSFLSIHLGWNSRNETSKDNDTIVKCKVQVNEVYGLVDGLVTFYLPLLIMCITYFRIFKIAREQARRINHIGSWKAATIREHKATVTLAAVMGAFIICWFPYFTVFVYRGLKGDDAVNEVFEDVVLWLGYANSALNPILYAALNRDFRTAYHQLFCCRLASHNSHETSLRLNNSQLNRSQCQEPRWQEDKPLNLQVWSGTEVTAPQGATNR
Hrh3 protein, sequence (Q5PPG3 whole entry): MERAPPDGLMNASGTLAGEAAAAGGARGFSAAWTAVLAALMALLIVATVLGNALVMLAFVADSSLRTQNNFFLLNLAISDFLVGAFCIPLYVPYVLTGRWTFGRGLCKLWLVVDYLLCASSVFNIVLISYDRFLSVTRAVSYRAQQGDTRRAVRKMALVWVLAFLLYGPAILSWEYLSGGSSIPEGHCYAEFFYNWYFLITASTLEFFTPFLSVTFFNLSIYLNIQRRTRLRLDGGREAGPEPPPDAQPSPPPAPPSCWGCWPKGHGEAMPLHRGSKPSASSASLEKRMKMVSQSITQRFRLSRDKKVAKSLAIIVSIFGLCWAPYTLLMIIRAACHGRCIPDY

- pKi (Histamine H1 receptor): 6.00
- pKi (Histamine H2 receptor): 6.00
- pKi (Hrh3 protein): 8.72
- pKi (Nischarin): 6.81
Compound: O=C(NCc1ccc(Cc2c[nH]cn2)cc1)Nc1cc(Cl)cc(Cl)c1

— BindingDB's records for doi:10.1124/jpet.103.049254 (Schering-Plough Research Institute, 2003)
